From US5521208A, “Compositions and methods for the treatment of the metabolically impaired and for improved compliance” (Alcon Laboratories, Inc., priority 1993, dated 1996) come the findings set out here.

As a reminder, the IC50 is the point on the concentration scale where inhibition reaches its midpoint. A lower IC50 goes with greater potency. The ED50 is the midpoint of the dose-response relation.

Experiment [1] deals with T1, Rat L-Hexonate Dehydrogenase (L-HDH) (Rattus norvegicus, UniProt P51635).
T1 construct: rat kidney supernatant fraction; from tissue; host or cells: rat kidney, supernatant fraction
T1 sequence (P51635 1-325): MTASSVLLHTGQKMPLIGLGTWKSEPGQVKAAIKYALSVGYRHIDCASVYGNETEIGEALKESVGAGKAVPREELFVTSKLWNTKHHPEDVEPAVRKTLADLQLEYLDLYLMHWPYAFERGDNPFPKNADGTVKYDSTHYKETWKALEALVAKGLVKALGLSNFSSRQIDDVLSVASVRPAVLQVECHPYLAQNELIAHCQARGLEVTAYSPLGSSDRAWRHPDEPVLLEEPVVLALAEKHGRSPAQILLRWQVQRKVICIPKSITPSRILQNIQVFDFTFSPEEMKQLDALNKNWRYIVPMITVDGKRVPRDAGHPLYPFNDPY
Kind of experiment: In vitro inhibition of L-hexonate dehydrogenase (rat kidney supernatant fraction). In kind it is biochemical. Particulars: ± SEM, n = 2-3, pH 7.5, room temperature. From the text: The in vitro inhibiting activity of racemic 2,7-difluoro-4-methoxyspiro[9H-fluorene-9,4'-imidazolidine]-2',5'-dione, prepared in accordance with U.S. Pat. No. 4,864,028 (hereafter referred to as "A(±)") was compared to that of the R(+) and S(-) enantiomers thereof, prepared in accordance with U.S. Pat. No. 5,151,544 (referred to hereafter as "A(+)" and "A(-)", respectively), with respect to aldose reductase and L-hexonate dehydrogenase.
The test methods used for measuring in vitro inhibition activities of these compounds toward aldose reductase and L-hexonate dehydrogenase are known. The method utilized for measuring the inhibition of aldose reductase is described in B. W. Griffin and L. G. McNatt, "Characterization of the Reduction of 3-Acetylpyridine Adenine Dinucleotide Phosphate by Benzyl Alcohol Catalyzed by Aldose Reductase", Arch. Biochem, Biophys. 246:75-81 (1986). The method utilized for measuring the inhibition of L-hexonate dehydrogenase is described in M. T. DuPriest, B. W. Griffin, D. Kuzmich, and L. G. McNatt "Spiro[fluoreneisothiazolidin]one Dioxides: New Aldose Reductase and L-Hexonate Dehydrogenase Inhibitors", J. Med Chem. 34:3229-3234 (1991). Both methods are based on detection of the rate of increase of fluorescence of NADPH (reduced form of nicotinamide adenine dinucleotide phosphate) or an analog, formed as a product of the enzymatic reaction, i.e., oxidation of an appropriate alcohol substrate by the respective oxidized pyridine species. In the assay for aldose reductase, the reaction mixture contained 50 mmol/L potassium phosphate buffer (pH 7.5), 12 mmol/L benzyl alcohol, 12 μmol/L oxidized 3-acetylpyridine adenine dinucleotide phosphate, and rat lens supernatant fraction (50-100 μg total protein) in a total volume of 1.0 mL. […] The enzyme-dependent rate of formation of the reduced pyridine nucleotide was monitored with a fluorescence spectrophotometer set at excitation/emission wavelengths of 365/480 nm for the NADP+analog and 365/465 nm for NADP+; slit widths were routinely set at 10 nm. […]

In experiment [2] the test system is sorbitol in three tissues (lens, sciatic nerve and retina). In words: In vivo inhibition of sorbitol in three tissues (lens, sciatic nerve and retina) of severely diabetic rats, dosed orally. Particulars: for ED50: Rattus norvegicus, 192 h, once a day for eight days. As to the method: To compare the in vivo efficacy of A(±) (from Example 1) and its enantiomers, A(+) and A(-), the ED50 values (the effective dose, in mg/kg/day, to achieve 50% inhibition) for inhibition of sorbitol in three tissues (lens, sciatic nerve and retina) of severely diabetic rats, dosed orally for eight days, once a day, were recorded.

Experiment [3] shares this test system. The description is as above. The conditions noted are these: Rattus norvegicus, 192 h, oral, once a day for eight days, footnote 1: ED60, read-out: ED50, Lens (footnote: for lens, ED60 value is given).
Where [4] appears, read: retina sorbitol, oral, A(-) value is (est.), read-out: ED50, Retina.
[5] abbreviates: sciatic nerve sorbitol, oral, read-out: ED50, S. Nerve.

SMILES strings stand for the structures. Read-outs that look alike come from different tables or passages of the source. Some results are limits rather than exact numbers.

`COc1cc(F)cc2c1-c1ccc(F)cc1[C@]21NC(=O)NC1=O` [A(-), 2,7-difluoro-4-methoxyspiro[9H-fluorene-9,4'-imidazolidine]-2',5'-dione]: the half-inhibitory concentration (IC50) in experiment [1] was determined as 3 ± 0.4 µM. Also, the ED50 in experiment [2] (setting [4]) is 2 to 3 mg/kg; in experiment [2] (setting [5]), 1 mg/kg. Also, the “factor by which less active than A(+)” value in experiment [2] (in all tissues (lens, sciatic nerve, retina)) is no less than 10. Besides, in experiment [2] (lens sorbitol, highest dose (1.5 mg/kg/day), oral, eight days), the “maximum inhibition achieved at the highest dose” value turned out to be 40%. For the same molecule, the ED60 in experiment [3] was 1.52 mg/kg/day.

Turning to `COc1cc(F)cc2c1-c1ccc(F)cc1C21NC(=O)NC1=O` (racemic) [A(±), 2,7-difluoro-4-methoxyspiro[9H-fluorene-9,4'-imidazolidine]-2',5'-dione], half-maximal inhibition in experiment [1] (IC50) required 2.2 ± 0.9 µM. Further, the ED50 in experiment [2] (setting [4]) was 0.26 mg/kg; in experiment [2] (setting [5]), 0.12 mg/kg. Besides, in experiment [2] (sorbitol inhibition in vivo, diabetic rats), the “activity relative to A(+)” value is on record as “about 50%”. In addition, in experiment [3], the ED60 was found to be 0.28 mg/kg/day.

For the molecule `COc1cc(F)cc2c1-c1ccc(F)cc1[C@@]21NC(=O)NC1=O` [A(+), 2,7-difluoro-4-methoxyspiro[9H-fluorene-9,4'-imidazolidine]-2',5'-dione], the half-inhibitory concentration (IC50) in experiment [1] is 3 ± 0.4 µM. For the same molecule, the ED50 in experiment [2] (setting [4]) amounted to 0.15 mg/kg; in experiment [2] (setting [5]), 0.08 mg/kg. Also, the ED60 in experiment [3] worked out at 0.15 mg/kg/day.
